Test results reported in US9428492B2, “Secondary alcohol substituted triazoles as PDE10 inhibitors” (Merck Sharp & Dohme Corp., priority 2012, dated 2016).
Like-named read-outs stand apart in the source and are kept apart here.

Key:
human PDE10A2 = human PDE10A2 (Homo sapiens (Human), UniProt Q9Y233); experiment: PDE10 fluorescence polarization (IMAP FP) inhibition assay; type: biochemical
Method: The activity of the compounds in accordance with the present invention as PDE10 inhibitors may be readily determined without undue experimentation using a fluorescence polarization (FP) methodology that is well known in the art (Huang, W., et al., J. Biomol Screen, 2002, 7: 215).
In a typical experiment the PDE10 inhibitory activity of the compounds of the present invention was determined in accordance with the following experimental method. PDE10A2 was amplified from human fetal brain cDNA (Clontech, Mountain View, Calif.) using a forward primer corresponding to nucleotides 56-77 of human PDE10A2 (Accession No. AF127480, Genbank Identifier 4894716), containing a Kozak consensus sequence, and a reverse primer corresponding to nucleotides 2406-2413 of human PDE10A2 (Accession No. AF127480, Genbank Identifier 4894716). Amplification with Easy-A polymerase (Stratagene, La Jolla, Calif.) was 95° C. for 2 minutes followed by thirty three cycles of 95° C. for 40 seconds, 55° C. for 30 seconds, and 72° C. for 2 minutes 48 seconds. Final extension was 72° C. for 7 minutes. The PCR product was TA cloned into pcDNA3.2-TOPO (Invitrogen, Carlsbad, Calif.) according to standard protocol. AD293 cells with 70-80% confluency were transiently transfected with human PDE10A2/pcDNA3.2-TOPO using Lipofectamine 2000 according to manufacturer specifications (Invitrogen, Carlsbad, Calif.). Cells were harvested 48 hours post-transfection and lysed by sonication (setting 3, 10×5 sec pulses) in a buffer containing 20 mM HEPES, 1 mM EDTA and protease inhibitor cocktail (Roche). Lysate was collected by centrifugation at 75,000×g for 20 minutes. Supernatant containing the cytoplasmic fraction was used for evaluation of PDE10A2 activity. The fluorescence polarization assay for cyclic nucleotide phosphodiesterases was performed using an IMAP® FP kit supplied by Molecular Devices, Sunnyvale, Calif. (product # R8139). IMAP® technology has been applied previously to phosphodiesterase assays (Huang, W., et al., J. Biomol Screen, 2002, 7: 215). Assays were performed at room temperature in 384-well microtiter plates with an incubation volume of 20.2 μL. Solutions of test compounds were prepared in DMSO and serially diluted with DMSO to yield 8 μL of each of 10 solutions differing by 3-fold in concentration, at 32 serial dilutions per plate. […] 0% of inhibition is determined by using DMSO (1% final concentrations).
A Labcyte Echo 555 (Labcyte, Sunnyvale, Calif.) is used to dispense 200 nL from each well of the titration plate to the 384 well assay plate. A solution of enzyme (1/1600 dilution from aliquots; sufficient to produce 20% substrate conversion) and a separate solution of FAM-labeled cAMP PDE from Molecular Devices (product # R7506), at a final concentration of 50 nM are made in the assay buffer (10 mM Tris HCl, pH 7.2, 10 mM MgCl2, 0.05% NaN3 0.01% Tween-20, and 1 mM DTT). The enzyme and the substrate are then added to the assay plates in two consecutive additions of 10 μL, and then shaken to mix. The reaction is allowed to proceed at room temperature for 30 minutes. […] The enzymatic reaction is stopped by addition of 60 μL of the binding solution to each well of the assay plates and the plates are sealed and shaken for 10 seconds. The plate was incubated at room temperature for at least one hour prior to determining the fluorescence polarization (FP). The parallel and perpendicular fluorescence of each well of the plate was measured using a Perkin Elmer EnVision™ plate reader (Waltham, Mass.).
Fluorescence polarization (mP) was calculated from the parallel (S) and perpendicular (P) fluorescence of each sample well and the analogous values for the median control well, containing only substrate (So and Po), using the following equation: Polarization (mP)=1000*(S/So−P/Po)/(S/So+P/Po).
Dose-inhibition profiles for each compound were characterized by fitting the mP data to a four-parameter equation given below.

CYP3A4 = CYP3A4 (Homo sapiens (Human), UniProt P08684); experiment: time-dependent inhibition (TDI) of CYP3A4; type: in vitro ADME; conditions: for time-dependent inhibition (TDI) of the CYP3A4 enzyme: result in words
Chain of CYP3A4 (P08684 whole entry): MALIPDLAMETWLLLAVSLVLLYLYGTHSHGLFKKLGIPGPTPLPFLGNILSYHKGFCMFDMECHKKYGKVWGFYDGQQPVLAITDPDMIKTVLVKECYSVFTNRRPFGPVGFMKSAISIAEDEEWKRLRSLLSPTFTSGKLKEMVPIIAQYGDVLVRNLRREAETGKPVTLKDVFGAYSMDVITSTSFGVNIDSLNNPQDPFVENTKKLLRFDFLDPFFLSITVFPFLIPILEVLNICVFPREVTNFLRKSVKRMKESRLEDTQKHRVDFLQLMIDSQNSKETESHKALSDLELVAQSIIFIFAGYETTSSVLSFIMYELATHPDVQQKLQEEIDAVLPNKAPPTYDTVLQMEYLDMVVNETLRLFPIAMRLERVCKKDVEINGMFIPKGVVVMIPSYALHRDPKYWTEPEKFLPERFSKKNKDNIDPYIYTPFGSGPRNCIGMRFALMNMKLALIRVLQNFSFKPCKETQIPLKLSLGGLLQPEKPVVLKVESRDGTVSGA

CYP2C9 = CYP2C9 (Homo sapiens (Human), UniProt P11712); experiment: reversible inhibition of CYP2C9; type: in vitro ADME
Chain of CYP2C9 (P11712 whole entry): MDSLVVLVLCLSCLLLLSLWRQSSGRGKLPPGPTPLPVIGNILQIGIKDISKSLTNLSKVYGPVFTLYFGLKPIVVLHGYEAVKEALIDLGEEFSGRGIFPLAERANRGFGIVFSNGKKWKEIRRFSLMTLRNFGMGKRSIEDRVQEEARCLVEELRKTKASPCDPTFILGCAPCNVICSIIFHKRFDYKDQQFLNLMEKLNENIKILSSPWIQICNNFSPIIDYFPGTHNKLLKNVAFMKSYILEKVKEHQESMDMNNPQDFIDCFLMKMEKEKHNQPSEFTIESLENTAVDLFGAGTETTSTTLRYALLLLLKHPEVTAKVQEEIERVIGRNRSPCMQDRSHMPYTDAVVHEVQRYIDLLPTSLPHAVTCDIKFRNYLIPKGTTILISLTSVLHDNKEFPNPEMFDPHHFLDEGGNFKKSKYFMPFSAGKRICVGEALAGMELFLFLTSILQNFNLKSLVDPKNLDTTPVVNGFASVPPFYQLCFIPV

[1] = comparison table with Compounds A, B, C, read-out: PDE10 Ki

Chain of human PDE10A2 (Q9Y233 267-1055): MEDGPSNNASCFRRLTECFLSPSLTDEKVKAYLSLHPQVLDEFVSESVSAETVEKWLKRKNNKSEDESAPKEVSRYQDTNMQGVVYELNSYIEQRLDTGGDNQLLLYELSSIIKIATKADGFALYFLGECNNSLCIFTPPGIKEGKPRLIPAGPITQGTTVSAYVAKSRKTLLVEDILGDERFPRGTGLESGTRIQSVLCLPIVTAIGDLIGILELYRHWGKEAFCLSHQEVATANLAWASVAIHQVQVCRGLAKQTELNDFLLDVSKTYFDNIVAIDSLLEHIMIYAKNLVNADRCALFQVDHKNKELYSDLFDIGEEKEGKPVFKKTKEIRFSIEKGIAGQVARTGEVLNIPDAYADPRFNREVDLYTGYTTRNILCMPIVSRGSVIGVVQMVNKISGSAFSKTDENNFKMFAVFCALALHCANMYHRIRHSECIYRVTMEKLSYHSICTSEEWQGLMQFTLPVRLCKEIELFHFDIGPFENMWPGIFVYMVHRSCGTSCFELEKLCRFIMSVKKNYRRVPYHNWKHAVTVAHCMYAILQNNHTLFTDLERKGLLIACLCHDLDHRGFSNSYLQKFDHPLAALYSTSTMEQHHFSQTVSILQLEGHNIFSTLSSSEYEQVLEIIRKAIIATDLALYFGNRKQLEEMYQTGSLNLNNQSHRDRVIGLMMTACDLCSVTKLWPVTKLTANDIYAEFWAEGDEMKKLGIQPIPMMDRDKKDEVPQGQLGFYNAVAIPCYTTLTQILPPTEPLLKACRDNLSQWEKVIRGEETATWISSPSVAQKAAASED

SMILES	Ki (human PDE10A2; [1])	Ki (human PDE10A2; read-out: PDE10a Ki)	TDI CYP3A4 shift ratio (CYP3A4)	time-dependent inhibition (TDI) of the CYP3A4 enzyme (CYP3A4)	IC50 (CYP2C9)
Cc1nc(N2CC(c3nc4ccccc4n3C)C2)cc(-n2nc(C)nc2C(O)C(F)(F)F)n1 (single isomer, unassigned) [Example 3b, 2,2,2-trifluoro-1-(3-methyl-1-(2-methyl-6-(3-(1-methyl-1H-benzo[d]imidazol-2-yl)azetidin-1-yl)pyrimidin-4-yl)-1H-1,2,4-triazol-5-yl)ethanol]	0.06 nM	0.06 nM	1	do not exhibit TDI of CYP3A4	> 50000 nM
CCC(O)c1nc(C)nn1-c1cc(N2CC(c3nc4ccccc4n3C)C2)nc(C)n1 (single isomer, unassigned) [Example 4b, 1-(3-methyl-1-(2-methyl-6-(3-(1-methyl-1H-benzo[d]imidazol-2-yl)azetidin-1-yl)pyrimidin-4-yl)-1H-1,2,4-triazol-5-yl)propan-1-ol]	0.51 nM	0.41 nM	1	do not exhibit TDI of CYP3A4	> 50000 nM
Cc1nc(N2CC(c3nc4ccccc4n3C)C2)cc(-n2nc(C)nc2C(O)C2CC2)n1 (single isomer, unassigned) [Example 6a, cyclopropyl(3-methyl-1-(2-methyl-6-(3-(1-methyl-1H-benzo[d]imidazol-2-yl)azetidin-1-yl)pyrimidin-4-yl)-1H-1,2,4-triazol-5-yl)methanol]	0.17 nM	0.17 nM	1	do not exhibit TDI of CYP3A4	> 50000 nM
COCc1nc(C)nn1-c1cc([C@@H]2C[C@H]2c2nc3ccccc3n2C)nc(C)n1 [Compound C, 2-((1R,2R)-2-(6-(5-(methoxymethyl)-3-methyl-1H-1,2,4-triazol-1-yl)-2-methylpyrimidin-4-yl)cyclopropyl)-1-methyl-1H-benzo[d]imidazole, reference compound]	0.49 nM		>1.98	exhibited time-dependent inhibition (TDI) of the CYP3A4 enzyme	46000 nM
Cc1nc(N2CC(c3nc4ccccc4n3C)C2)cc(-n2nc(C)nc2[C@H](C)O)n1 [Example 1, (S)-1-(3-methyl-1-(2-methyl-6-(3-(1-methyl-1H-benzo[d]imidazol-2-yl)azetidin-1-yl)pyrimidin-4-yl)-1H-1,2,4-triazol-5-yl)ethanol]		0.23 nM	1	do not exhibit TDI of CYP3A4	> 50000 nM
Cc1nc(N2CC(c3nc4ccccc4n3C)C2)cc(-n2nc(C)nc2[C@@H](C)O)n1 [Example 2, (R)-1-(3-methyl-1-(2-methyl-6-(3-(1-methyl-1H-benzo[d]imidazol-2-yl)azetidin-1-yl)pyrimidin-4-yl)-1H-1,2,4-triazol-5-yl)ethanol]	1.2 nM	1.2 nM	1	do not exhibit TDI of CYP3A4	> 50000 nM
Cc1nc(C(C)O)n(-c2cc(N3CC(c4nc5ccccc5n4C)C3)nc(C3CC3)n2)n1 (stereo not shown) [Example 10, 1-(1-(2-cyclopropyl-6-(3-(1-methyl-1H-benzo[d]imidazol-2-yl)azetidin-1-yl)pyrimidin-4-yl)-3-methyl-1H-1,2,4-triazol-5-yl)ethanol]		0.21 nM			
Cc1nc(N2CC(c3nc4ccccc4n3C)C2)cc(-n2nc(C)nc2C(O)CF)n1 (stereo not shown) [Example 12, 2-fluoro-1-(3-methyl-1-(2-methyl-6-(3-(1-methyl-1H-benzo[d]imidazol-2-yl)azetidin-1-yl)pyrimidin-4-yl)-1H-1,2,4-triazol-5-yl)ethanol]		0.34 nM			
Cc1nc([C@@H]2C[C@H]2c2nc3ccccc3n2C)cc(-n2nc(C)nc2[C@H](O)c2ccccc2)n1 [Example 15, (R)-(3-methyl-1-(2-methyl-6-((1R,2R)-2-(1-methyl-1H-benzo[d]imidazol-2-yl)cyclopropyl)pyrimidin-4-yl)-1H-1,2,4-triazol-5-yl)(phenyl)methanol]		0.09 nM			
Cc1nc([C@@H]2C[C@H]2c2nc3ccccc3n2C)cc(-n2nc(C)nc2[C@@H](O)c2ccccc2)n1 [Example 16, (S)-(3-methyl-1-(2-methyl-6-((1R,2R)-2-(1-methyl-1H-benzo[d]imidazol-2-yl)cyclopropyl)pyrimidin-4-yl)-1H-1,2,4-triazol-5-yl)(phenyl)methanol]		0.62 nM			
Cc1nc([C@H](C)O)n(-c2cc([C@@H]3C[C@H]3c3nc4ccccc4n3C)nc(C(F)(F)F)n2)n1 [Example 17, (S)-1-(3-methyl-1-(6-((1R,2R)-2-(1-methyl-1H-benzo[d]imidazol-2-yl)cyclopropyl)-2-(trifluoromethyl)pyrimidin-4-yl)-1H-1,2,4-triazol-5-yl)ethanol]		2.8 nM			
Cc1nc([C@H](C)O)n(-c2cc([C@@H]3C[C@H]3c3nc4ccccc4n3C)nc(C3CC3)n2)n1 [Example 18, (S)-1-(1-(2-cyclopropyl-6-((1R,2R)-2-(1-methyl-1H-benzo[d]imidazol-2-yl)cyclopropyl)pyrimidin-4-yl)-3-methyl-1H-1,2,4-triazol-5-yl)ethanol]		0.36 nM			

Next, values leading:

Ki (human PDE10A2; [1])	Ki (human PDE10A2; read-out: PDE10a Ki)	TDI CYP3A4 shift ratio (CYP3A4)	time-dependent inhibition (TDI) of the CYP3A4 enzyme (CYP3A4)	IC50 (CYP2C9)	SMILES
			do not exhibit TDI of CYP3A4	> 50000 nM	CCC(O)c1nc(C)nn1-c1cc([C@@H]2C[C@H]2c2nc3ccccc3n2C)nc(C)n1 (single isomer, unassigned) [Example 19a]
4.2 nM		1		> 50000 nM	Cc1nc([C@@H]2C[C@H]2c2nc3ccccc3n2C)cc(-n2nc(C)nc2C(C)(C)O)n1 [Compound A, 2-(3-methyl-1-(2-methyl-6-((1R,2R)-2-(1-methyl-1H-benzo[d]imidazol-2-yl)cyclopropyl)pyrimidin-4-yl)-1H-1,2,4-triazol-5-yl)propan-2-ol, reference compound]
2.1 nM		1		10500 nM	CO[C@@H](C)c1nc(C)nn1-c1cc([C@@H]2C[C@H]2c2nc3ccccc3n2C)nc(C)n1 [Compound B, 2-((1R,2R)-2-(6-(5-((S)-1-methoxyethyl)-3-methyl-1H-1,2,4-triazol-1-yl)-2-methylpyrimidin-4-yl)cyclopropyl)-1-methyl-1H-benzo[d]imidazole, reference compound]
0.74 nM	0.74 nM	1	do not exhibit TDI of CYP3A4	> 50000 nM	Cc1nc([C@@H]2C[C@H]2c2nc3ccccc3n2C)cc(-n2nc(C)nc2[C@H](C)O)n1 [Example 13, (S)-1-(3-methyl-1-(2-methyl-6-((1R,2R)-2-(1-methyl-1H-benzo[d]imidazol-2-yl)cyclopropyl)pyrimidin-4-yl)-1H-1,2,4-triazol-5-yl)ethanol]
	0.55 nM				Cc1nc(C2C[C@H]2c2nc3ccccc3n2C)cc(-n2nc(C)nc2C(O)C(F)(F)F)n1 (stereo partly drawn) [Example 20, 2,2,2-trifluoro-1-(3-methyl-1-(2-methyl-6-((1R,2R)-2-(1-methyl-1H-benzo[d]imidazol-2-yl)cyclopropyl)pyrimidin-4-yl)-1H-1,2,4-triazol-5-yl)ethanol]
	0.47 nM				Cc1nc([C@@H]2C[C@H]2c2nc3ccccc3n2C)cc(-n2nc(C)nc2C(O)C(C)C)n1 (stereo partly drawn) [Example 21, 2-methyl-1-(3-methyl-1-(2-methyl-6-((1R,2R)-2-(1-methyl-1H-benzo[d]imidazol-2-yl)cyclopropyl)pyrimidin-4-yl)-1H-1,2,4-triazol-5-yl)propan-1-ol]
